# Test results taken from PMC8279416, “Structural Fine-Tuning of Desmuramylpeptide NOD2 Agonists Defines Their In Vivo Adjuvant Activity” (Journal of Medicinal Chemistry, 2021).
# Assays:
# [1] = tested on: NIH/OlaHsd mice; assay: In vivo ovalbumin-specific antibody response, first experiment (neutral liposomes); parameters: species or system mouse; conditions: for Log10 (anti-OVA IgG1/anti-OVA IgG2a): first in vivo experiment, one week after the booster dose, mean ± SEM of 5 mice; for Boost in the elicited ovalbumin-specific IgG response: vs liposomes without adjuvant
# Description: To determine whether enhanced antigen presentation in vitro is correlated to in vivo adjuvant activities, an immunization study was performed in a murine model of adjuvanticity. Specifically, the selected desmuramylpeptides were investigated for induction of systemic immune responses against the model antigen ovalbumin. Seven groups of NIH/OlaHsd mice were immunized with ovalbumin-containing neutral liposomes, either alone or with additional adjuvants of MDP or the desmuramylpeptides 1, 68, 74, 75, or 81. After immunization and one booster dose, the mice sera were collected and assayed for ovalbumin-specific IgG antibodies (Figure 10).
# Multilamellar liposomes were prepared by the modified thin lipid film method as described previously.[130],[131] For the preparation of neutral liposomes, a 7:5 molar ratio of egg-phosphatidylcholine and cholesterol was used. For the preparation of negatively charged liposomes, a 7:5:1 molar ratio of egg-phosphatidylcholine, cholesterol, and dicetylphosphate was used, while a 7:5:0.5 molar ratio of egg-phosphatidylcholine, cholesterol, and Man-PEG-Pam was used in the preparation of mannosylated liposomes. Lipids (total lipid concentration, 4 mg/mL) were dissolved in chloroform/methanol (2:1). A methanol or chloroform/methanol solution of MDP or the desmuramylpeptides was added to the lipid solution for a final concentration of 2 mM and 1.5 mM for the first (Figure 10) and second (Figure 11) experiments, respectively. After rotary evaporation of the solvent, the remaining lipid film was dried in vacuum for 1 h and then dispersed by gentle handshaking in an ovalbumin solution in saline (0.0667 and 0.1 mg/mL for the first and second experiments, respectively). This was then left overnight at 4 °C to swell and stabilize. Liposome size was reduced by sonification. Nonentrapped material was not separated from liposomes, and the complete liposome suspension was used for immunizations.
# For the first experiment (Figure 10), sex-matched NIH/OlaHsd mice (five per group) were immunized subcutaneously in the tail base and boosted one time after 21 days. The injection volume in all experimental groups was 0.15 mL per mouse, which corresponds to 10 μg of OVA, […], and 0.30 μmol of MDP and desmuramylpeptides. For the second experiment (Figure 11), sex-matched NIH/OlaHsd mice (five per group) were immunized and boosted two times subcutaneously into the tail base at 21-day intervals. The injection volume in all experimental groups was 0.1 mL per mouse, which corresponds to 10 μg of OVA, 400 μg of lipids, and 0.15 μmol of MDP and 75. The mice were anesthetized with ip application of ketamine/xylazine (25 mg/kg each) prior to blood collection from the axillary plexus on the seventh day after the last booster dose. Individual serum from each animal was decomplemented at 56 °C for 30 min and then stored at −20 °C until tested.
# ELISA assays were performed as detailed previously.[46] Briefly, high-binding ELISA plates (Costar, U.S.A.) were coated with a 15 μg/mL solution of ovalbumin in carbonate buffer, pH 9.6, and incubated overnight at room temperature. Nonspecific antibody binding was blocked with 0.5% w/v bovine serum albumin in PBS-T (0.05% (v/v) Tween 20 in phosphate-buffered saline) for 2 h at 37 °C. After washing, five serial dilutions of mice sera and standard preparations were added in duplicate. Plates were incubated overnight at room temperature, washed, and analyzed for ovalbumin-specific IgG levels by incubation with HRP-conjugated goat anti-mouse IgG (2 h at 37 °C) and then, after washing, with 0.6 mg/mL o-phenylenediaminedihydrochloride solution in citrate-phosphate buffer, pH 5.0, with 0.5 μL of 30% H2O2 per milliliter for 30 min at room temperature in the dark. The enzymatic reaction was stopped with 12.5% H2SO4, and absorbance at 492 nm was measured using a microplate reader (Thermo Fisher Scientific, Waltham, MA, U.S.A.). […]
# [2] = tested on: human PBMCs; assay: Cytokine release from peripheral blood mononuclear cells (cytometric bead array); assay type: cell-based; conditions: 2 μM, 18 h, without LPS
# Description: The immunostimulatory effects of the selected desmuramylpeptides were evaluated using human primary peripheral blood mononuclear cells (PBMCs). This heterogeneous mixture of immune cells allowed the study of the effects of these NOD2 agonists in a physiologically relevant system, where other NOD2-interacting and downstream signaling proteins were present. The effects of desmuramylpeptides were first determined for the secreted cytokine profile using a cytometric bead array cytokine kit. Moreover, considering that activation of NOD2 is also an important amplification signal for Toll-like receptor (TLR)-induced inflammatory responses,[79]−[81] we also examined the effects on cytokine secretion of the combination of desmuramylpeptides with LPS, a well-known TLR4 agonist.
# In line with previous studies, the effects of MDP and the desmuramylpeptides were most pronounced for the induction of the chemokine IL-8.[82]
# Peripheral blood mononuclear cells were seeded (1 × 10^6 cells/mL) in 48-well plates in 500 μL of growth medium and treated with the compounds (2 μM) or with the corresponding vehicle (0.1% DMSO) in the absence and presence of LPS (10 ng/mL). Cell-free supernatants were collected after 18 h of incubation (37 °C, 5% CO2) and stored at −80 °C until tested. Cytokine production was determined with the BD Cytometric Bead Array Human Inflammatory Cytokines Kit (contents: IL-8, IL-1β, IL-6, IL-10, TNF, IL-12p70; BD Bioscience) on an Attune NxT flow cytometer (Thermo Fisher Scientific, Waltham, MA, U.S.A.). Standard curves were generated using recombinant cytokines contained in the kit. The data were analyzed using the FlowJo (Tree Star, Inc., Ashland, OR, U.S.A.) and Prism (GraphPad, San Diego, CA, U.S.A.) software. The experiments were repeated as four independent biological replicates. Statistical significance was determined by repeated measures one-way ANOVA followed with Dunnett’s multiple comparisons test.
# [3] = neutral liposomes, 0.30 μmol adjuvant per dose, 1 week after booster
# [4] = neutral liposomes, 0.30 μmol adjuvant per dose, s.c., 1 week after booster
SMILES,Log10 (anti-OVA IgG1/anti-OVA IgG2a) [1],"Ovalbumin-specific IgG2a response (in words) [1, 3]","Adjuvant activity: ovalbumin-specific IgG (in words) [1, 4]","Induction of cytokines IL-1β, IL-6, IL-8 and TNF-α, compound alone [2]","Ovalbumin-specific IgG1 response (in words) [1, 3]","Boost in the elicited ovalbumin-specific IgG response [1, 4] [fold]"
"COc1cc(/C=C/C(=O)NCC(=O)N[C@H](C(=O)N[C@H](CCC(=O)OC2CCCC2)C(=O)OC2CCCC2)C(C)C)ccc1O [Compound 68, Dicyclopentyl ((E)-3-(4-Hydroxy-3-methoxyphenyl)acryloyl)glycyl-L-valyl-D-glutamate]",2.28 ± 0.13,slight suppression of the IgG2a response,devoid of adjuvant activity,induced small increases in the levels of all four of these cytokines,,
"CCCCCCCCCCCCCCCCCC(=O)Oc1ccc(/C=C/C(=O)NCC(=O)N[C@H](C(=O)N[C@H](CCC(=O)OCC)C(=O)OCC)C(C)C)cc1OC [Compound 75, Diethyl ((E)-3-(3-Methoxy-4-(stearoyloxy)phenyl)acryloyl)glycyl-L-valyl-D-glutamate]",2.07 ± 0.17,highest levels of IgG2a antibodies,,induced lower responses,significantly enhanced,5
"CCCCCCCCCCCCCCCCCC(=O)Oc1ccc(/C=C/C(=O)NCC(=O)N[C@H](C(=O)N[C@H](CCC(=O)OCC)C(=O)OCC)[C@@H](C)O)cc1OC [Compound 81, Diethyl ((E)-3-(3-Methoxy-4-(stearoyloxy)phenyl)acryloyl)glycyl-L-threonyl-D-glutamate]",2.18 ± 0.24,,,induced lower responses,largely IgG1-based response,3
